Laboratory results taken from US8759104B2, “Cationic lipids” (The University Court of the University of Edinburgh, priority 2010, dated 2014).

What follows are compounds tested on HeLa cells (assay: Transfection of pEGFP-C1 reporter plasmid into HeLa cells, GFP expression by flow cytometry). Conditions: HeLa cells 48 h after transfection with reporter plasmid, flow cytometry.
Assay type: cell-based, human
Method: The corresponding cationic lipid (1 mM in methanol) were mixed in different proportions with DOPE (10 mg/mL in chloroform) and the organic solvent removed by evaporation in an oven (37° C.) overnight. The resultant thin films were then hydrated with PBS. The solutions were vortexed (10-20 s) and incubated at ambient temperature for 20 min. Plasmid DNA or siRNA solution (0.04 mg/mL in PBS or another isotonic solution) was subsequently added and the solution vortexed (10-20 s). The lipoplexes were incubated at room temperature for 20 min before being used.
Human HeLa cells were grown in RPMI supplemented with 4 mM glutamine, 10% FCS and 100 units/ml penicillin/streptomycin (RPMI-CM) until 80% confluence. HEK293 and B16F10 cells were grown in DMEM supplemented with 4 mM glutamine, 10% FCS and 100 units/ml penicillin/streptomycin (DMEM-CM) until 80% confluence. Cells were then suspended using trypsin/EDTA and counted. 2×10^4 cells in 150 μL of media per well were seeded in 96 well plates and incubated overnight. The day afterwards, the different lipoplex formulations were added. Each experiment was performed in quadruplicate, using Effectene® Transfection Reagent (Qiagen), Lipofectamine™ 2000 (Invitrogen) and Fugene (Roche) as positive controls and untreated cells as negative controls. After two days incubation at 37° C. and 5% CO2 (the change of media after transfection was not necessary), the green fluorescent protein (GFP) expression, as a consequence of transfecting the pEGFP-C1, was evidenced using a fluorescent microscope (Leica) and measured by flow cytometry. For the flow cytometry analysis, cells were washed twice with PBS, detached with trypsin/EDTA, harvested with 2% ferum bovine serum (FBS) in PBS, centrifuged and resuspended with 2% FBS in PBS and analyzed using a BD FACSaria flow cytometer. Transfection efficiency was measured as percentage of transfected cells.
Reagents that obtained greater than 50% transfection were also analyzed against HEK293 and B16F10 cell lines. Transfection results (+ percentages of transfection between 5-25%; ++ percentages of transfection between 25-50%; N.D. not determined). MTT toxicity assay results are indicated between brackets with 100% being cell viability of untreated cells.

SMILES | Transfection results (percentage of transfected cells), HeLa
CCCCCCCCCCCCCCCCCCCC(=O)NCCCN(CCCNC(=O)CCCCCCCCCCCCCCCCCCC)C(=O)CCC(=O)N[C@@H](CCCNC(=N)N)C(=O)N[C@@H](CCCNC(=N)N)C(=O)N[C@@H](CCCNC(=N)N)C(N)=O.O=C(O)C(F)(F)F.O=C(O)C(F)(F)F.O=C(O)C(F)(F)F [Compound A3-Sp3-A] | + (percentages of transfection between 5-25%)
CCCCCCCCCCCCCCCCCCCC(=O)NCCN(CCNC(=O)CCCCCCCCCCCCCCCCCCC)C(=O)CCC(=O)N[C@@H](CCCNC(=N)N)C(N)=O.O=C(O)C(F)(F)F [Compound A1-Sp1-A] | + (percentages of transfection between 5-25%)
CCCCCCCCCCCCCCCCCCCCCCCC(=O)NCCCN(CCCNC(=O)CCCCCCCCCCCCCCCCCCCCCCC)C(=O)/C=C\C(=O)N[C@@H](CCCNC(=N)N)C(=O)N[C@@H](CCCNC(=N)N)C(N)=O.O=C(O)C(F)(F)F.O=C(O)C(F)(F)F [Compound A2-Sp4-L] | + (percentages of transfection between 5-25%)
CCCCCCCCCCCCCCCCCCCCCCCC(=O)NCCN(CCNC(=O)CCCCCCCCCCCCCCCCCCCCCCC)C(=O)CCC(=O)N[C@@H](CCCNC(=N)N)C(=O)N[C@@H](CCCNC(=N)N)C(=O)N[C@@H](CCCNC(=N)N)C(N)=O.O=C(O)C(F)(F)F.O=C(O)C(F)(F)F.O=C(O)C(F)(F)F [Compound A3-Sp1-L] | + (percentages of transfection between 5-25%)
CCCCCCCCCCCCCCCCCCCC(=O)NCCN(CCNC(=O)CCCCCCCCCCCCCCCCCCC)C(=O)/C=C\C(=O)N[C@@H](CCCNC(=N)N)C(=O)N[C@@H](CCCNC(=N)N)C(N)=O.O=C(O)C(F)(F)F.O=C(O)C(F)(F)F [Compound A2-Sp2-A] | ++ (percentages of transfection between 25-50%)
CCCCCCCCCCCCCCCCCC(=O)NCCCN(CCCNC(=O)CCCCCCCCCCCCCCCCC)C(=O)/C=C\C(=O)N[C@@H](CCCNC(=N)N)C(=O)N[C@@H](CCCNC(=N)N)C(N)=O.O=C(O)C(F)(F)F.O=C(O)C(F)(F)F [Compound A2-Sp4-S] | + (percentages of transfection between 5-25%)
CCCCCCCCCCCCCCCC(=O)NCCCN(CCCNC(=O)CCCCCCCCCCCCCCC)C(=O)CCC(=O)N[C@@H](CCCNC(=N)N)C(=O)N[C@@H](CCCNC(=N)N)C(N)=O.O=C(O)C(F)(F)F.O=C(O)C(F)(F)F [Compound A2-Sp3-P] | + (percentages of transfection between 5-25%)
CCCCCCCC/C=C\CCCCCCCC(=O)NCCN(CCNC(=O)CCCCCCC/C=C\CCCCCCCC)C(=O)/C=C\C(=O)N[C@@H](CCCNC(=N)N)C(=O)N[C@@H](CCCNC(=N)N)C(=O)N[C@@H](CCCNC(=N)N)C(N)=O.O=C(O)C(F)(F)F.O=C(O)C(F)(F)F.O=C(O)C(F)(F)F [Compound A3-Sp2-O] | ++ (percentages of transfection between 25-50%)
CCCCCCCCCCCCCCCCCC(=O)NCCN(CCNC(=O)CCCCCCCCCCCCCCCCC)C(=O)CCC(=O)N[C@@H](CCCNC(=N)N)C(N)=O.O=C(O)C(F)(F)F [Compound A1-Sp1-S] | + (percentages of transfection between 5-25%)
CCCCCCCCCCCCCCCCCC(=O)NCCN(CCNC(=O)CCCCCCCCCCCCCCCCC)C(=O)/C=C\C(=O)N[C@@H](CCCNC(=N)N)C(=O)N[C@@H](CCCNC(=N)N)C(=O)N[C@@H](CCCNC(=N)N)C(N)=O.O=C(O)C(F)(F)F.O=C(O)C(F)(F)F.O=C(O)C(F)(F)F [Compound A3-Sp2-S] | ++ (percentages of transfection between 25-50%)
CCCCCCCCCCCCCCCCCC(=O)NCCCN(CCCNC(=O)CCCCCCCCCCCCCCCCC)C(=O)/C=C\C(=O)N[C@@H](CCCNC(=N)N)C(N)=O.O=C(O)C(F)(F)F [Compound A1-Sp4-S] | + (percentages of transfection between 5-25%)
CCCCCCCCCCCCCCCCCCCC(=O)NCCN(CCNC(=O)CCCCCCCCCCCCCCCCCCC)C(=O)CCC(=O)N[C@@H](CCCNC(=N)N)C(=O)N[C@@H](CCCNC(=N)N)C(N)=O.O=C(O)C(F)(F)F.O=C(O)C(F)(F)F [Compound A2-Sp1-A] | + (percentages of transfection between 5-25%)
CCCCCCCC/C=C\CCCCCCCC(=O)NCCN(CCNC(=O)CCCCCCC/C=C\CCCCCCCC)C(=O)CCC(=O)N[C@@H](CCCNC(=N)N)C(=O)N[C@@H](CCCNC(=N)N)C(N)=O.O=C(O)C(F)(F)F.O=C(O)C(F)(F)F [Compound A2-Sp1-O] | ++ (percentages of transfection between 25-50%)
CCCCCCCCCCCCCCCCCCCCCCCC(=O)NCCCN(CCCNC(=O)CCCCCCCCCCCCCCCCCCCCCCC)C(=O)/C=C\C(=O)N[C@@H](CCCNC(=N)N)C(N)=O.O=C(O)C(F)(F)F [Compound A1-Sp4-L] | + (percentages of transfection between 5-25%)
CCCCCCCCCCCCCCCC(=O)NCCCN(CCCNC(=O)CCCCCCCCCCCCCCC)C(=O)CCC(=O)N[C@@H](CCCNC(=N)N)C(N)=O.O=C(O)C(F)(F)F [Compound A1-Sp3-P] | + (percentages of transfection between 5-25%)
CCCCCCCCCCCCCCCCCCCCCCCC(=O)NCCN(CCNC(=O)CCCCCCCCCCCCCCCCCCCCCCC)C(=O)CCC(=O)N[C@@H](CCCNC(=N)N)C(N)=O.O=C(O)C(F)(F)F [Compound A1-Sp1-L] | + (percentages of transfection between 5-25%)
CCCCCCCC/C=C\CCCCCCCC(=O)NCCCN(CCCNC(=O)CCCCCCC/C=C\CCCCCCCC)C(=O)CCC(=O)N[C@@H](CCCNC(=N)N)C(=O)N[C@@H](CCCNC(=N)N)C(=O)N[C@@H](CCCNC(=N)N)C(N)=O.O=C(O)C(F)(F)F.O=C(O)C(F)(F)F.O=C(O)C(F)(F)F [Compound A3-Sp3-O] | ++ (percentages of transfection between 25-50%)
CCCCCCCCCCCCCCCCCC(=O)NCCN(CCNC(=O)CCCCCCCCCCCCCCCCC)C(=O)CCC(=O)N[C@@H](CCCNC(=N)N)C(=O)N[C@@H](CCCNC(=N)N)C(N)=O.O=C(O)C(F)(F)F.O=C(O)C(F)(F)F [Compound A2-Sp1-S] | + (percentages of transfection between 5-25%)
CCCCCCCCCCCCCCCCCC(=O)NCCN(CCNC(=O)CCCCCCCCCCCCCCCCC)C(=O)/C=C\C(=O)N[C@@H](CCCNC(=N)N)C(N)=O.O=C(O)C(F)(F)F [Compound A1-Sp2-S] | + (percentages of transfection between 5-25%)
CCCCCCCC/C=C\CCCCCCCC(=O)NCCCN(CCCNC(=O)CCCCCCC/C=C\CCCCCCCC)C(=O)CCC(=O)N[C@@H](CCCNC(=N)N)C(=O)N[C@@H](CCCNC(=N)N)C(N)=O.O=C(O)C(F)(F)F.O=C(O)C(F)(F)F [Compound A2-Sp3-O] | ++ (percentages of transfection between 25-50%)
CCCCCCCCCCCCCCCCCCCCCCCC(=O)NCCCN(CCCNC(=O)CCCCCCCCCCCCCCCCCCCCCCC)C(=O)/C=C\C(=O)N[C@@H](CCCNC(=N)N)C(=O)N[C@@H](CCCNC(=N)N)C(=O)N[C@@H](CCCNC(=N)N)C(N)=O.O=C(O)C(F)(F)F.O=C(O)C(F)(F)F.O=C(O)C(F)(F)F [Compound A3-Sp4-L] | ++ (percentages of transfection between 25-50%)
CCCCCCCCCCCCCCCCCCCCCCCC(=O)NCCN(CCNC(=O)CCCCCCCCCCCCCCCCCCCCCCC)C(=O)/C=C\C(=O)N[C@@H](CCCNC(=N)N)C(=O)N[C@@H](CCCNC(=N)N)C(N)=O.O=C(O)C(F)(F)F.O=C(O)C(F)(F)F [Compound A2-Sp2-L] | + (percentages of transfection between 5-25%)
CCCCCCCCCCCCCCCCCCCCCCCC(=O)NCCCN(CCCNC(=O)CCCCCCCCCCCCCCCCCCCCCCC)C(=O)CCC(=O)N[C@@H](CCCNC(=N)N)C(=O)N[C@@H](CCCNC(=N)N)C(N)=O.O=C(O)C(F)(F)F.O=C(O)C(F)(F)F [Compound A2-Sp3-L] | + (percentages of transfection between 5-25%)
CCCCCCCCCCCCCCCC(=O)NCCCN(CCCNC(=O)CCCCCCCCCCCCCCC)C(=O)CCC(=O)N[C@@H](CCCNC(=N)N)C(=O)N[C@@H](CCCNC(=N)N)C(=O)N[C@@H](CCCNC(=N)N)C(N)=O.O=C(O)C(F)(F)F.O=C(O)C(F)(F)F.O=C(O)C(F)(F)F [Compound A3-Sp3-P] | ++ (percentages of transfection between 25-50%)
